How the values were obtained:
[1] = tested on: spiral ganglion neurons (SGNs); assay: Delayed treatment (after two weeks of artificial perilymph following neomycin): eABR thresholds; type: in vivo, guinea pigs; conditions: example 2, delayed treatment, 1 μM; from the fifth week; p<0.01 for DB
Description: The studies of examples 1 to 3 were performed on guinea pigs (250-500 g). All the animals were provided with a platinum-iridium electrode inserted into the cochlear in order to mimic a cochlear implant. The experiments were carried out in accordance with the protocol described by […] and collaborators (Shinohara et al., 2002, Proc. Nati. Acad. Sci. USA, 99, 1657-60). The procedure used was the same as in example 1, apart from the difference that, following the infusion of neomycin sulfate, the pumps were filled with artificial perilymph for two weeks. […] There was no eABR stimulation possible in the animals placed under the same conditions as defined above, but not treated by the products DA or DB.

[2] = tested on: spiral ganglion neurons (SGNs); assay: Quantification of the density of the SGNs in Rosenthal's canal and histological analysis of cochlea slices; type: in vivo, guinea pigs
Description: The studies of examples 1 to 3 were performed on guinea pigs (250-500 g). All the animals were provided with a platinum-iridium electrode inserted into the cochlear in order to mimic a cochlear implant. The experiments were carried out in accordance with the protocol described by Raphael and collaborators (Shinohara et al., 2002, Proc. Nati. Acad. Sci. USA, 99, 1657-60).
After the final measurement of the eABR threshold, the animals were heavily anaesthetised, intraperitoneally, using sodium pentobarbital (25 mg/kg) and infused intracardially with a saline solution (37° C.), which eliminates blood, then with a cold glutaraldehyde solution (2.5% in a 0.1 M phosphate buffer), which fixes the tissues. The temporal bone was removed, then the bulla was opened to reveal the cochlea. A small window was opened in the apex of the cochlea and the membrane of the round window so as to be able to delicately wash the cochlea with the glutaraldehyde solution. The cochlea was then decalcified in a solution of EDTA (0.1 M in the phosphate buffer) so as to make it possible to make cuts. After decalcification, the cochlea was dehydrated and enclosed in “plastic JB-4” (Polyscience Inc, Warrington, Pa.). The cochlea was sectioned into slices 4 μm thick. […] The six sections of Rosenthal's channel of six slices were analysed for each group of animals (Sigma Pro Scan) so as to count the spiral ganglion neurons. […]

| Molecule | eABR thresholds, treated group versus control group (artificial perilymph) [1] | appearance of the axons of the SGNs (histological analysis, FIG. 5) ([2]; cochlea slices from the modiolus, axons not distinguishable in animals treated by AP) | number of SGNs compared to the control group treated with the artificial perilymph ([2]; animals of example 1 (early treatment), GDNF 1 μg/ml, P<0.001) |
| --- | --- | --- | --- |
| CC(C)CCC[C@@H](C)[C@H]1CC[C@H]2[C@@H]3C[C@@H](NCCc4c[nH]cn4)[C@@]4(O)C[C@@H](O)CC[C@]4(C)[C@H]3CC[C@]12C [DA, 6β-[2-(1H-imidazol-4-yl)-ethylamino]-cholestane-3β,5α-diol] | no longer a significant difference | – | – |
| CC(C)CCC[C@@H](C)[C@H]1CC[C@H]2[C@@H]3C[C@@H](NCCCNCCCCN)[C@@]4(O)C[C@@H](O)CC[C@]4(C)[C@H]3CC[C@]12C [DB, 6β-[3-(4-aminobutylamino)propylamino]-cholestane-3β,5α-diol] | significant difference | thin and long | – |
| GDNF: glia cell-line derived neurotrophic factor (protein, UniProt P39905 78-211, looked up) Glial cell line-derived …: SPDKQMAVLPRRERNRQAAAANPENSRGKGRRGQRGKNRGCVLTAIHLNVTDLGLGYETKEELIFRYCSGSCDAAETTYDKILKNLSRNRRLVSDKVGQACCRPIAFDDDLSFLDDNLVYHILRKHSAKRCGCI | – | – | significant difference |

Source: patent publication US10092577B2, “Sterol derivatives for treating neurosensory hearing loss, and corresponding composition” (AFFICHEM, priority 2014, dated 2018)
